Test results taken from patent US12673961B2 (Agios Pharmaceuticals, Inc., priority 2022, dated 2026).
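Note: Ten-point dose curve from 2-fold serial dilutions, run in duplicate at 0.5% DMSO final, tracer step used 20 µM sepiapterin and 800 µM labeled phenylalanine.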

Each compound was assayed against T1, human PAH with the R408W mutation (Homo sapiens, UniProt P00439, R408W) (assay: Cell Based Phenylalanine Flux Assay). Conditions: A375 cells expressing human R408W PAH; 24 hrs with compound, then sepiapterin and 13C9,15N-Phenylalanine for 4 hours; 13C-Tyrosine by LC-MS; average where tested multiple times; read-out: AC50.
T1 construct: expressed in transfected cells
T1 sequence (P00439 1-452 R408W): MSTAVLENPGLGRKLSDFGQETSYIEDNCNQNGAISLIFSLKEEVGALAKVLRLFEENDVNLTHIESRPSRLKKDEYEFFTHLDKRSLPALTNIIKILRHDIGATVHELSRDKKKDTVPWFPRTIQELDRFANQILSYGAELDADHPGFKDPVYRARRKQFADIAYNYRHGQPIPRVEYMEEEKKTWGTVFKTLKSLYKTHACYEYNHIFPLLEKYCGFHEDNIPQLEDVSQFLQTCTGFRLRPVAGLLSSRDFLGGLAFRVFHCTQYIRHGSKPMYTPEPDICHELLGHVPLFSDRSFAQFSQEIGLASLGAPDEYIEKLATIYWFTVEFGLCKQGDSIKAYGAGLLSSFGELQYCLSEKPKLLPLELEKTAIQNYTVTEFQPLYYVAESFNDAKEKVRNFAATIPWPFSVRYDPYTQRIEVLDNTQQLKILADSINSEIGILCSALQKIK
In the case of `COc1cccn2nc([C@@H]3c4nc[nH]c4CCN3C(=O)c3cnn4cc(-c5ccn(C)n5)ccc34)cc12` [Example 1748, (S)-(4-(4-methoxypyrazolo [1,5-a]pyridin-2-yl)-6,7-dihydro-1H-imidazo[4,5-c]pyridin-5(4H)-yl)(6-(1-methyl-1H-pyrazol-3-yl)pyrazolo[1,5-a]pyridin-3-yl)methanone], the AC50 is reported as 500 to 1000 nM. With `FC(F)c1cccn2nc([C@H]3c4nc[nH]c4CCN3c3nnc(C(F)(F)F)o3)cc12` [Example 1766, (R)-2-(4-(4-(difluoromethyl)pyrazolo[1,5-a]pyridin-2-yl)-6,7-dihydro-1H-imidazo [4,5-c]pyridin-5(4H)-yl)-5-(trifluoromethyl)-1,3,4-oxadiazole] the AC50 was 500 to 1000 nM. Compound `CN(C)c1ccc2c(C(=O)N3CCc4[nH]cnc4[C@H]3c3cc4c(F)cccn4n3)cnn2c1` [Example 1772, (S)-(6-(dimethylamino)pyrazolo[1,5-a]pyridin-3-yl)(4-(4-fluoropyrazolo[1,5-a]pyridin-2-yl)-6,7-dihydro-1H-imidazo[4,5-c]pyridin-5(4H)-yl)methanone] has an AC50 of 500 to 1000 nM. In the case of `Fc1cccn2nc([C@@H]3c4nc[nH]c4CCN3c3ncc(C(F)(F)F)cn3)cc12` [Example 1778, (S)-4-(4-fluoropyrazolo [1,5-a]pyridin-2-yl)-5-(5-(trifluoromethyl)pyrimidin-2-yl)-4,5,6,7-tetrahydro-1H-imidazo[4,5-c]pyridine], the AC50 is reported as < 500 nM. `Cc1cccc2cc([C@@H]3c4nc[nH]c4CCN3c3ncc(C(F)(F)F)cn3)nn12` [Example 1802, (S)-4-(7-methylpyrazolo [1,5-a]pyridin-2-yl)-5-(5-(trifluoromethyl)pyrimidin-2-yl)-4,5,6,7-tetrahydro-1H-imidazo[4,5-c]pyridine] showed an AC50 of 500 to 1000 nM. `Fc1cccn2nc([C@H]3c4nc[nH]c4CCN3c3nnc(C(F)(F)F)o3)cc12` [Example 1822, (R)-2-(4-(4-fluoropyrazolo [1,5-a]pyridin-2-yl)-6,7-dihydro-1H-imidazo [4,5-c]pyridin-5(4H)-yl)-5-(trifluoromethyl)-1,3,4-oxadiazole] was tested, and the AC50 was > 5000 nM. Compound `Fc1cccn2nc([C@@H]3c4nc[nH]c4CCN3c3nnc(C(F)(F)F)o3)cc12` [Example 1823] has an AC50 of 500 to 1000 nM. Compound `O=C(c1nnc(-c2cnccn2)o1)N1CCc2[nH]cnc2[C@H]1c1cc2c(C3CC3)cccn2n1` [Example 1857, (S)-(4-(4-cyclopropylpyrazolo [1,5-a]pyridin-2-yl)-1,4,6,7-tetrahydro-5H-imidazo[4,5-c]pyridin-5-yl)(5-(pyrazin-2-yl)-1,3,4-oxadiazol-2-yl)methanone] has an AC50 of 500 to 1000 nM. `Fc1cccc(F)c1-c1nnc(N2CCc3[nH]cnc3[C@H]2c2cc3c(F)cccn3n2)o1` [Example 1865, (S)-2-(2,6-difluorophenyl)-5-(4-(4-fluoropyrazolo[1,5-a]pyridin-2-yl)-1,4,6,7-tetrahydro-5H-imidazo[4,5-c]pyridin-5-yl)-1,3,4-oxadiazole] was tested, and the AC50 was < 500 nM. With `CC(C)(C)c1ncc(C(=O)N2CCc3[nH]cnc3[C@H]2c2cc3ccccn3n2)o1` [Example 1866, (S)-(2-(tert-butyl)oxazol-5-yl)(4-(pyrazolo[1,5-a]pyridin-2-yl)-1,4,6,7-tetrahydro-5H-imidazo[4,5-c]pyridin-5-yl)methanone] the AC50 was < 500 nM. `Cn1ccc(-c2nnc(C(=O)N3CCc4[nH]cnc4[C@@H]3c3cc4c(Br)cccn4n3)o2)n1` [Example 1888, (R)-(4-(4-bromopyrazolo [1,5-a]pyridin-2-yl)-1,4,6,7-tetrahydro-5H-imidazo[4,5-c]pyridin-5-yl)(5-(1-methyl-1H-pyrazol-3-yl)-1,3,4-oxadiazol-2-yl)methanone] was tested, and the AC50 was > 5000 nM. With `CCc1cccn2nc([C@@H]3c4nc[nH]c4CCN3C(=O)c3nnc(-c4ccccn4)o3)cc12` [Example 1895, (S)-(4-(4-ethylpyrazolo[1,5-a]pyridin-2-yl)-1,4,6,7-tetrahydro-5H-imidazo[4,5-c]pyridin-5-yl)(5-(pyridin-2-yl)-1,3,4-oxadiazol-2-yl) methanone] the AC50 was < 500 nM. `O=C(c1nnc(-c2ccccn2)o1)N1CCc2[nH]cnc2[C@H]1c1cc2c(C3CC3)cccn2n1` [Example 1897, (S)-(4-(4-cyclopropylpyrazolo [1,5-a]pyridin-2-yl)-1,4,6,7-tetrahydro-5H-imidazo [4,5-c]pyridin-5-yl)(5-(pyridin-2-yl)-1,3,4-oxadiazol-2-yl)methanone] gave an AC50 of 500 to 1000 nM. With `Cn1ccc(-c2nnc(C(=O)N3CCc4[nH]cnc4[C@@H]3c3cc4c(C5CC5)cccn4n3)o2)n1` [Example 1901] the AC50 was > 5000 nM. In the case of `CC(C)c1cccn2nc([C@@H]3c4nc[nH]c4CCN3C(=O)c3nnc(-c4ncccc4F)o3)cc12` [Example 1906, (S)-(5-(3-fluoropyridin-2-yl)-1,3,4-oxadiazol-2-yl)(4-(4-isopropylpyrazolo[1,5-a]pyridin-2-yl)-1,4,6,7-tetrahydro-5H-imidazo[4,5-c]pyridin-5-yl)methanone], the AC50 is reported as < 500 nM. Compound `O=C(c1nnc(C2CC2)o1)N1CCc2[nH]cnc2[C@@H]1c1cc2c(Br)cccn2n1` [Example 1909, (R)-(4-(4-bromopyrazolo [1,5-a]pyridin-2-yl)-1,4,6,7-tetrahydro-5H-imidazo [4,5-c]pyridin-5-yl)(5-cyclopropyl-1,3,4-oxadiazol-2-yl)methanone] has an AC50 of 1000 to 5000 nM. With `O=C(c1nnc(-c2ccccn2)o1)N1CCc2[nH]cnc2[C@@H]1c1cc2c(Br)cccn2n1` [Example 1910, (R)-(4-(4-bromopyrazolo [1,5-a]pyridin-2-yl)-1,4,6,7-tetrahydro-5H-imidazo[4,5-c]pyridin-5-yl)(5-(pyridin-2-yl)-1,3,4-oxadiazol-2-yl)methanone] the AC50 was > 5000 nM. For `Fc1ccc(-c2nnc(N3CCc4[nH]cnc4[C@@H]3c3cc4c(C(F)F)cccn4n3)o2)cc1` [Example 1912, (R)-2-(4-(4-(difluoromethyl)pyrazolo[1,5-a]pyridin-2-yl)-1,4,6,7-tetrahydro-5H-imidazo[4,5-c]pyridin-5-yl)-5-(4-fluorophenyl)-1,3,4-oxadiazole], the AC50 was > 5000 nM. For `Fc1ccc(-c2nnc(N3CCc4[nH]cnc4[C@H]3c3cc4c(C(F)F)cccn4n3)o2)cc1` [Example 1913, (S)-2-(4-(4-(difluoromethyl)pyrazolo[1,5-a]pyridin-2-yl)-1,4,6,7-tetrahydro-5H-imidazo [4,5-c]pyridin-5-yl)-5-(4-fluorophenyl)-1,3,4-oxadiazole], the AC50 was < 500 nM. With `Cc1cccn2nc([C@@H]3c4nc[nH]c4CCN3C(=O)c3cnc(C(C)(C)C)o3)cc12` [Example 1920, (S)-(2-(tert-butyl)oxazol-5-yl)(4-(4-methylpyrazolo[1,5-a]pyridin-2-yl)-1,4,6,7-tetrahydro-5H-imidazo[4,5-c]pyridin-5-yl)methanone] the AC50 was < 500 nM. `CCc1cccn2nc([C@H]3c4nc[nH]c4CCN3C(=O)c3nnc(C(C)(C)F)o3)cc12` [Example 1923, (R)-(4-(4-ethylpyrazolo [1,5-a]pyridin-2-yl)-1,4,6,7-tetrahydro-5H-imidazo [4,5-c]pyridin-5-yl)(5-(2-fluoropropan-2-yl)-1,3,4-oxadiazol-2-yl)methanone] was tested, and the AC50 was > 5000 nM. In the case of `CCc1cccn2nc([C@@H]3c4nc[nH]c4CCN3C(=O)c3nnc(-c4cnn(C)c4)o3)cc12` [Example 1924, (S)-(4-(4-ethylpyrazolo [1,5-a]pyridin-2-yl)-1,4,6,7-tetrahydro-5H-imidazo[4,5-c]pyridin-5-yl)(5-(1-methyl-1H-pyrazol-4-yl)-1,3,4-oxadiazol-2-yl)methanone], the AC50 is reported as < 500 nM.
